Assay results as given in patent US8999942B2, “Polyol modified aminoglycoside-lipid conjugates” (University of Manitoba, priority 2010, dated 2015).

Legend:
[1] = test system: S. aureus ATCC 29213; assay: MIC, broth macrodilution (CLSI), S. aureus ATCC 29213; assay type: cell-based, Staphylococcus aureus
Description: (§1) All compounds were tested against American Type Culture Collection (ATCC) reference strains as well as clinical isolates from the Canadian Intensive Care Unit (CAN-ICU) study (Zhanel, et al., 2008). […] Antibacterial activity against Gram-positive and Gram-negative microorganisms was performed via broth macrodilution tests using CLSI methodology (Clinical and Laboratory Standards Institute, 2006). The minimum inhibitory concentration (MIC) in μg/mL of the aminoglycoside-derived amphiphilic polycarbamates and polyethers were determined using established methods (Clinical and Laboratory Standards Institute, 2006) and are shown in Tables 1 and 2, respectively.

[2] = test system: three strains of E. coli; assay: MIC, three strains of E. coli; assay type: cell-based
Description: as §1

[3] = test system: P. aeruginosa (Gent-R) CAN-ICU 62308; assay: MIC, broth macrodilution (CLSI), P. aeruginosa CAN-ICU 62308; assay type: cell-based, Pseudomonas aeruginosa
Description: as §1

[4] = test system: Pseudomonas aeruginosa ATCC 27853; assay: MIC, broth macrodilution (CLSI), P. aeruginosa ATCC 27853; assay type: cell-based
Description: as §1

[5] = test system: S. aureus, MRSA, S. epidermidis and MRSE; assay: MIC, S. aureus, MRSA, S. epidermidis and MRSE; assay type: cell-based, Staphylococcus aureus, Staphylococcus epidermidis
Description: as §1

[6] = test system: S. pneumoniae ATCC 13883; assay: MIC, broth macrodilution (CLSI), S. pneumoniae ATCC 13883; assay type: cell-based
Description: as §1

[7] = test system: Stenotrophomonas maltophilia (CAN-ICU 62585); assay: MIC, broth macrodilution (CLSI), S. maltophilia; assay type: cell-based; conditions: for Minimal Inhibitory Concentration (MIC): S. maltophilia, footnote CAN-ICU 62584
Description: as §1

[8] = test system: E. coli ATCC 25922; assay: MIC, broth macrodilution (CLSI), E. coli ATCC 25922; assay type: cell-based
Description: as §1

[9] = test system: S. epidermidis ATCC 14990; assay: MIC, broth macrodilution (CLSI), S. epidermidis; assay type: cell-based, Staphylococcus epidermidis; conditions: footnote ATCC 1490
Description: as §1

[10] = test system: methicillin-resistant Staphylococcus aureus (MRSA) ATCC 33592; assay: MIC, broth macrodilution (CLSI), MRSA ATCC 33592; assay type: cell-based; conditions: for Minimal Inhibitory Concentration (MIC): MRSA, methicillin-resistant S. aureus ATCC 33592
Description: as §1

[11] = test system: E. coli (Gentamicin-resistant) CAN-ICU 61714; assay: MIC, broth macrodilution (CLSI), gentamicin-resistant E. coli; assay type: cell-based; conditions: footnote ATCC 6174 (gentamicin resistant)
Description: as §1

[12] = test system: methicillin-resistant Staphylococcus epidermidis (MRSE) CAN-ICU 61589; assay: MIC, broth macrodilution (CLSI), MRSE; assay type: cell-based; conditions: methicillin-resistant S. epidermidis, footnote (ATCC 14990)
Description: as §1

[13] = test system: Acinetobacter baumanni (CAN-ICU 63169); assay: MIC, broth macrodilution (CLSI), A. baumannii; assay type: cell-based; conditions: A. baumannii CAN-ICU 63169
Description: as §1

[14] = test system: Streptococcus pneumoniae ATCC 49619; assay: MIC, broth macrodilution (CLSI), S. pneumoniae ATCC 49619; assay type: cell-based
Description: as §1

[15] = test system: E. coli (Amikacin MIC 32) CAN-ICU 63074; assay: MIC, broth macrodilution (CLSI), E. coli CAN-ICU 63074; assay type: cell-based
Description: as §1

[16] = test system: Gram-negative strains; assay: Gram-negative antibacterial activity; assay type: cell-based; conditions: Gram-negatives E. coli and S. maltophilia
Description: as §1

[17] = test system: Gram-positive and Gram-negative strains tested; assay: Antibacterial activity, strains tested; assay type: cell-based
Description: as §1

Row | Compound | Minimal Inhibitory Concentration (MIC) [1] | Minimal Inhibitory Concentration (MIC) [3] | Minimal Inhibitory Concentration (MIC) [4] | Minimal Inhibitory Concentration (MIC) [6] | Minimal Inhibitory Concentration (MIC) [7] | Minimal Inhibitory Concentration (MIC) [8] | Minimal Inhibitory Concentration (MIC) [9] | Minimal Inhibitory Concentration (MIC) [10] | Minimal Inhibitory Concentration (MIC) [11] | Minimal Inhibitory Concentration (MIC) [12] | Minimal Inhibitory Concentration (MIC) [13] | Minimal Inhibitory Concentration (MIC) [14] | Minimal Inhibitory Concentration (MIC) [15] | antibacterial activity (in words) [17] | also measured
1 | NCC1OC(OC2C(N)CC(N)C(OC(=O)Nc3ccccc3)C2OC2OC(COC(=O)Nc3ccccc3)C(OC3OC(CN)C(OC(=O)Nc4ccccc4)C(OC(=O)Nc4ccccc4)C3N)C2OC(=O)Nc2ccccc2)C(N)C(OC(=O)Nc2ccccc2)C1OC(=O)Nc1ccccc1.O=C(O)C(F)(F)F.O=C(O)C(F)(F)F.O=C(O)C(F)(F)F.O=C(O)C(F)(F)F.O=C(O)C(F)(F)F.O=C(O)C(F)(F)F (stereo not drawn) [Compound 1] | 1 µg/mL | 128 µg/mL | 256 µg/mL | 256 µg/mL | 4 µg/mL | 32 µg/mL | 0.5 µg/mL | 1 µg/mL | 16 µg/mL | 0.5 µg/mL | 32 µg/mL | 16 µg/mL | 16 µg/mL |  | MIC fold reduced compared to Neomycin B sulfate ([2]; Neomycin B susceptible E. coli): 2-8 fold; MIC ([2]; three strains of E. coli): 16 to 32 µg/mL; MIC [5]: ≤ 1 µg/mL; MIC fold lower compared to amphiphilic di- and tetracationic lipopeptides (Serrano et al., 2009) ([7]; against S. maltophilia): 32-64 fold; fold increased susceptibility over Neomycin B ([7]; against multidrug-resistant S. maltophilia): over 128 fold; fold enhancement compared to unmodified Neomycin B ([10]; against MRSA): 256 fold
2 | CCCCCCNC(=O)OCC1OC(OC2C(NC(=O)C(CCN)OC(=O)NCCCCCC)CC(N)C(OC3OC(CN)C(OC(=O)NCCCCCC)C(OC(=O)NCCCCCC)C3OC(=O)NCCCCCC)C2OC(=O)NCCCCCC)C(OC(=O)NCCCCCC)C(N)C1OC(=O)NCCCCCC.O=C(O)C(F)(F)F.O=C(O)C(F)(F)F.O=C(O)C(F)(F)F.O=C(O)C(F)(F)F (stereo not drawn) [Compound 9] | 4 µg/mL | 16 µg/mL | 64 µg/mL | >128 µg/mL | 16 µg/mL | 4 µg/mL | 4 µg/mL | 4 µg/mL | 8 µg/mL | 4 µg/mL | >128 µg/mL | 32 µg/mL | 4 µg/mL |  | fold improvement compared to 6 [16]: 8-32 fold
3 | COCC1OC(OC2C(OC)C(N)CC(N)C2OC2OC(CN)C(OC)C(OC)C2N)C(OC)C1OC1OC(CN)C(OC)C(OC)C1N.O=C(O)C(F)(F)F.O=C(O)C(F)(F)F.O=C(O)C(F)(F)F.O=C(O)C(F)(F)F.O=C(O)C(F)(F)F.O=C(O)C(F)(F)F (stereo not drawn) [Compound 14] | >256 µg/mL | >256 µg/mL | >256 µg/mL | >256 µg/mL | >256 µg/mL | >256 µg/mL | 256 µg/mL | >256 µg/mL | >256 µg/mL | >256 µg/mL | >256 µg/mL | >256 µg/mL | >256 µg/mL | inactivity | 
4 | COCC1OC(OC2C(N)CC(N)C(OC3OC(CN)C(OC)C(OC)C3OC)C2OC)C(OC)C(N)C1OC.O=C(O)C(F)(F)F.O=C(O)C(F)(F)F.O=C(O)C(F)(F)F.O=C(O)C(F)(F)F (stereo not drawn) [Compound 17] | >256 µg/mL | >256 µg/mL | >256 µg/mL | >256 µg/mL | >256 µg/mL | >256 µg/mL | 256 µg/mL | >256 µg/mL | >256 µg/mL | >256 µg/mL | >256 µg/mL | >256 µg/mL | >256 µg/mL | inactivity | 
5 | NCCC(OCc1ccc(Cl)cc1)C(=O)NC1CC(N)C(OC2OC(CN)C(OCc3ccc(Cl)cc3)C(OCc3ccc(Cl)cc3)C2OCc2ccc(Cl)cc2)C(OCc2ccc(Cl)cc2)C1OC1OC(COCc2ccc(Cl)cc2)C(OCc2ccc(Cl)cc2)C(N)C1OCc1ccc(Cl)cc1.O=C(O)C(F)(F)F.O=C(O)C(F)(F)F.O=C(O)C(F)(F)F.O=C(O)C(F)(F)F (stereo not drawn) [Compound 19] | 128 µg/mL | >256 µg/mL | >256 µg/mL | >256 µg/mL | >256 µg/mL | >256 µg/mL | 128 µg/mL | 128 µg/mL | >256 µg/mL | 64 µg/mL | >256 µg/mL | 128 µg/mL | 256 µg/mL |  | 
6 | COCC1OC(OC2C(NC(=O)C(CCN)OC)CC(N)C(OC3OC(CN)C(OC)C(OC)C3OC)C2OC)C(OC)C(N)C1OC.O=C(O)C(F)(F)F.O=C(O)C(F)(F)F.O=C(O)C(F)(F)F.O=C(O)C(F)(F)F (stereo not drawn) [Compound 20] | >256 µg/mL | >256 µg/mL | >256 µg/mL | >256 µg/mL | >256 µg/mL | >256 µg/mL | >256 µg/mL | >256 µg/mL | >256 µg/mL | >256 µg/mL | >256 µg/mL | >256 µg/mL | >256 µg/mL | inactivity | 
7 | NC[C@H]1O[C@H](O[C@H]2[C@H](O)[C@@H](O[C@H]3O[C@H](CO)[C@@H](O)[C@H](N)[C@H]3O)[C@H](N)C[C@@H]2N)[C@H](O)[C@@H](O)[C@@H]1O [Kanamycin A, reference compound] | 4 µg/mL | >512 µg/mL | >512 µg/mL | 1 µg/mL | >512 µg/mL | 8 µg/mL | 2 µg/mL | >512 µg/mL | 16 µg/mL | 128 µg/mL | 32 µg/mL | 8 µg/mL | 32 µg/mL |  | 
8 | Gentamicin [reference compound] | 1 µg/mL | 128 µg/mL | 8 µg/mL | 0.25 µg/mL | >512 µg/mL | 1 µg/mL | 0.25 µg/mL | 2 µg/mL | 128 µg/mL | 32 µg/mL | 128 µg/mL | 4 µg/mL | 8 µg/mL |  | 
